In test [1] the target is T1, Type-1 angiotensin II receptor A (Rattus norvegicus, UniProt P25095).
T1 sequence (P25095 whole entry): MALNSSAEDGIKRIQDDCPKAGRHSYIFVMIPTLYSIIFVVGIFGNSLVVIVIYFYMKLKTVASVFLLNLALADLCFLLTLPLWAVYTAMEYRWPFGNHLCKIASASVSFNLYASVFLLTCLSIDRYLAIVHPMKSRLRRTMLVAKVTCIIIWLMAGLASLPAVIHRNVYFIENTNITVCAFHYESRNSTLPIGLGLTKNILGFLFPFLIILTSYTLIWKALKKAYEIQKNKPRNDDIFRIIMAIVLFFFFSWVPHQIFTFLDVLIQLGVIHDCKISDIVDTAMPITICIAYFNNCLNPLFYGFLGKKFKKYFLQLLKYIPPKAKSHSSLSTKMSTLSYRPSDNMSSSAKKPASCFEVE
Nature of the test: Displacement of [125I]SI-Ang2 from AT1 receptor in Sprague-Dawley rat liver membrane. Format: cell membranes.

In test [2] the target is T2, Peroxisome proliferator-activated receptor gamma (Homo sapiens) (UniProt P37231).
T2 sequence (whole entry): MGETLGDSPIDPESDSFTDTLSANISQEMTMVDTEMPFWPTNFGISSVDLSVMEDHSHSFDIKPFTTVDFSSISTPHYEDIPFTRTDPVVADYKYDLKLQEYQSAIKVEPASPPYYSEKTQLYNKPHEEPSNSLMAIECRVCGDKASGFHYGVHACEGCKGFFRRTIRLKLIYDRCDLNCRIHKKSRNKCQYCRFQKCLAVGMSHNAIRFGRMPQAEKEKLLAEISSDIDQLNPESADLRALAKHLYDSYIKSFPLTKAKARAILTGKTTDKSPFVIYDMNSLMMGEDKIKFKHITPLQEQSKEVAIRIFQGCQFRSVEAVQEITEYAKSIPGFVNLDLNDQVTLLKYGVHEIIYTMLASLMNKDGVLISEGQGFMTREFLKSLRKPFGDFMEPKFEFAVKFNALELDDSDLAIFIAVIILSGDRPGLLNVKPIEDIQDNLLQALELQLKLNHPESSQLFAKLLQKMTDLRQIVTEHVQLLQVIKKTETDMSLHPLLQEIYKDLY
Kind of test: Agonist activity at human recombinant PPARgamma expressed in CV1 cells coexpressing GAL4 assessed as receptor transactivation at 10 uM by luciferase reporter gene assay relative to full agonist. Format: functional, cell-based. Particulars: CV-1. Background: Reporter assays use an easily measured gene product as a stand-in for the process of interest.

The target in test [3] is Peroxisome proliferator-activated receptor alpha (Homo sapiens) (UniProt Q07869). Kind of test: Agonist activity at human recombinant PPARalpha expressed in CV1 cells coexpressing GAL4 assessed as receptor transactivation at 10 µM by luciferase reporter gene assay relative to full agonist. Particulars: CV-1.
The target in test [4] is T3, Peroxisome proliferator-activated receptor alpha (Homo sapiens) (UniProt Q07869).
T3 sequence (whole entry): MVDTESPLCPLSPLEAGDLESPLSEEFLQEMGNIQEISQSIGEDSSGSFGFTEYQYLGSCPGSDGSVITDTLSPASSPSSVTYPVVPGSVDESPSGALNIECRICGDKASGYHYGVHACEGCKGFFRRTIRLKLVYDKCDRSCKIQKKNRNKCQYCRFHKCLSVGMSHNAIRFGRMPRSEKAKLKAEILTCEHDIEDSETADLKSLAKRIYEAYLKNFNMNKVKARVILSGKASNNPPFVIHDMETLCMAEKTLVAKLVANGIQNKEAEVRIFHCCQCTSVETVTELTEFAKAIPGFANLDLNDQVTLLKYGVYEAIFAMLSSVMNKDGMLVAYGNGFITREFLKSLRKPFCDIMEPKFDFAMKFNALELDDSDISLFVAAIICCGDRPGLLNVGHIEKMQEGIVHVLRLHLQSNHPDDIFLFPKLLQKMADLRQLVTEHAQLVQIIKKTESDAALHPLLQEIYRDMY
Nature of the test: Agonist activity at PPARalpha assessed as receptor transactivation by reporter gene assay relative to control. Format: functional.

The target in test [5] is T4, Peroxisome proliferator-activated receptor alpha (Homo sapiens, UniProt Q07869).
T4 sequence (Q07869 whole entry): T3 sequence (whole entry)
Kind of test: Agonist activity at PPARalpha assessed as receptor transactivation by reporter gene assay. Format: functional.

Calls of active or inactive are those of the source. The rule behind the calls is not given here. Bounds are passed on as bounds.

The values that follow come from ChEMBL document CHEMBL1156825, “Design, synthesis, and docking studies of novel benzimidazoles for the treatment of metabolic syndrome” (J Med Chem, 2010).

As for `CCCc1nc2c(C)cc(-c3nc4ccccc4n3C)cc2n1CCOc1ccc(CC(C)(Oc2ccccc2)C(=O)O)cc1` (centres undefined), the Ki in test [1] is 2.23 µM. The Activity in test [2] is 12%.
Taken in the same sequence, the figures for `CCCc1nc2c(C)cccc2n1Cc1ccc(/C=C/C(=O)OCC)cc1` were above 10 µM and 4%.
In test [1], `CCCc1nc2c(C)cccc2n1CCOc1ccc(CC(C)(Oc2ccccc2)C(=O)OCC)cc1` (centres undefined) came in with a Ki above 10 µM. Also, the Activity in test [3] worked out at 93%; in test [4], 93%; in test [2], 69%. The EC50 in test [5] came out at 0.3 µM.
Compound `CCCc1nc2c(C)cccc2n1Cc1ccc(CCc2nnn[nH]2)cc1` gave a Ki in test [1] of 2.84 µM. Also, the result in test [2] was inactive.
`CCCc1nc2c(C)cccc2n1Cc1ccc(OCC(=O)OCC)cc1` came in with an inhibition constant (Ki) in test [1] above 10 µM.
As to `CCCc1nc2c(C)cc(-c3nc4ccccc4n3C)cc2n1Cc1ccc(CCc2nnn[nH]2)cc1`, in test [1], the inhibition constant (Ki) is 0.0134 µM. Moreover, the outcome in test [2] was inactive.
As to `CCCc1nc2c(C)cc(-c3nc4ccccc4n3C)cc2n1Cc1ccc(-c2ccccc2C(=O)O)cc1`, the Activity in test [2] was determined as 21.9%.
Take `CCCc1nc2c(C)cccc2n1CCOc1ccc(CC(C)(C)C(=O)OCC)cc1`: the inhibitory constant (Ki) in test [1] was above 10 µM. Further, the Activity in test [2] was 10%.
Taken in the same sequence, the figures for `CCCc1nc2c(C)cccc2n1Cc1ccc(OCc2nnn[nH]2)cc1` were 5.06 µM and “inactive”.
In turn, `CCCc1nc2c(C)cc(-c3nc4ccccc4n3C)cc2n1CCOc1ccc(CC(C)(Oc2ccccc2)C(=O)OCC)cc1` (centres undefined) showed a Ki in test [1] of 2.53 µM. The Activity in test [3] is 15%; in test [4] it was 15%; in test [2] it was 29%.
Consider `CCCc1nc2c(C)cccc2n1Cc1ccc(CCC(=O)OC)cc1`, for which the Ki in test [1] was above 10 µM. Also, in test [2], the Activity stood at 2%.
Take `CCCc1nc2c(C)cccc2n1Cc1ccc(OC(C)(C)C(=O)OCC)cc1`: the inhibition constant Ki in test [1] is above 10 µM. The Activity in test [2] was found to be 21%.
Taken in the same sequence, the figures for `CCCc1nc2c(C)cc(-c3nc4ccccc4n3C)cc2n1CCOc1ccc(CCc2nnn[nH]2)cc1` were 1.62 µM and “inactive”.

In general, Ki refers to the dissociation constant of the complex between target and ligand, obtained from inhibition or displacement. A lower Ki goes with higher affinity. Broadly, the EC50 is the midpoint of the concentration-response curve.
